# Test results from patent US20120122727A1, “IN VITRO METHOD FOR PREDICTING WHETHER A COMPOUND IS GENOTOXIC IN VIVO” (priority 2009, published 2012).
# Experiments:
# [1] = in vivo; cited from earlier work
# [2] = tested on: primary mouse hepatocytes
# [3] = tested on: primary mouse hepatocytes; assay: Gene expression (Affymetrix Mouse Genome 430 2.0) in primary mouse hepatocytes, true vs false GTX, 24 h and 48 h
structure (smiles),measurement,setting,value
"Oc1cccc2cccnc12 [8Q, 8-Hydroxyquinoline]",GTX in vivo,[1],−
same,Gene expression data AF204959 (Cyp3a25 /// LOC622249),[2],−0.4178
same,Gene expression AA561726 average,[3],0.1739
same,Gene expression AF000969 average,[3],−0.1809
same,Gene expression AF022072 average,[3],0.0814
same,Gene expression AF033112 average,[3],−0.01703
same,Gene expression AF055573 average,[3],−0.09457
same,Gene expression AF069954 average,[3],0.1841
same,Gene expression AF297615 average,[3],−0.009333
same,Gene expression AF335325 average,[3],0.1418
same,Gene expression AI594683 average,[3],0.1235
same,Gene expression AI747296 average,[3],−0.0009667
same,Gene expression AK005731 average,[3],−0.03997
same,Gene expression AK007854 average,[3],0.05973
same,Gene expression AK010447 average,[3],0.06223
same,Gene expression AK010738 average,[3],0.3608
same,Gene expression AK014608 average,[3],−0.2447
same,Gene expression AK017734 average,[3],0.0878
same,Gene expression AK018383 average,[3],0.0679
same,Gene expression AK019979 average,[3],−0.2154
same,Gene expression AV095209 average,[3],0.2602
same,Gene expression AV141095 average,[3],−0.1725
same,Gene expression AV173869 average,[3],−0.02557
same,Gene expression AV216768 average,[3],0.1679
same,Gene expression AV219418 average,[3],0.4492
same,Gene expression AV221299 average,[3],0.1454
same,Gene expression AV246296 average,[3],−0.1136
same,Gene expression AV251625 average,[3],0.03813
same,Gene expression AV254764 average,[3],0.02403
same,Gene expression AV327248 average,[3],0.1176
same,Gene expression BB009155 average,[3],0.006467
same,Gene expression BB027848 average,[3],−0.06607
same,Gene expression BB043558 average,[3],−0.2347
same,Gene expression BB046347 average,[3],0.1608
same,Gene expression BB140436 average,[3],0.2861
same,Gene expression BB204486 average,[3],0.1305
same,Gene expression BB223872 average,[3],0.05753
same,Gene expression BB246912 average,[3],0.3325
same,Gene expression BB275142 average,[3],0.0112
same,Gene expression BB458460 average,[3],0.1317
same,Gene expression BB463610 average,[3],−0.2369
same,Gene expression BB730977 average,[3],0.3298
same,Gene expression BB743970 average,[3],0.1936
same,Gene expression BB770528 average,[3],−0.01823
same,Gene expression BB781615 average,[3],−0.006367
same,Gene expression BC003284 average,[3],0.09
same,Gene expression BC004827 average,[3],−0.07043
same,Gene expression BC005552 average,[3],0.1343
same,Gene expression BC006713 average,[3],−0.1035
same,Gene expression BC010318 average,[3],0.0565
same,Gene expression BC012247 average,[3],−0.006933
same,Gene expression BC012955 average,[3],−0.3049
same,Gene expression BC013893 average,[3],−0.1654
same,Gene expression BC017615 average,[3],−0.4904
same,Gene expression BC019379 average,[3],−0.1555
same,Gene expression BC019882 average,[3],−0.1719
same,Gene expression BC021352 average,[3],0.4721
same,Gene expression BC022148 average,[3],0.04497
same,Gene expression BC025169 average,[3],0.02213
same,Gene expression BC026131 average,[3],−0.0852
same,Gene expression BC027026 average,[3],0.2479
same,Gene expression BC027121 average,[3],−0.1207
same,Gene expression BC027185 average,[3],−0.1209
same,Gene expression BE956581 average,[3],0.403
same,Gene expression BF719766 average,[3],−0.2717
same,Gene expression BG065754 average,[3],−0.0909
same,Gene expression BG066491 average,[3],−0.1771
same,Gene expression BG076151 average,[3],−0.1887
same,Gene expression BG076333 average,[3],−0.05333
same,Gene expression BG797099 average,[3],0.0658
same,Gene expression BG967046 average,[3],−0.09257
same,Gene expression BI651416 average,[3],0.06777
same,Gene expression BI966443 average,[3],0.1335
same,Gene expression BM198879 average,[3],−0.05617
same,Gene expression BM200015 average,[3],0.08087
same,Gene expression BM230508 average,[3],0.07603
same,Gene expression BM936480 average,[3],0.0483
same,Gene expression BQ174991 average,[3],−0.1546
same,Gene expression L21027 average,[3],0.2905
same,Gene expression NM_007556 average,[3],0.0638
same,Gene expression NM_007980 average,[3],−0.5064
same,Gene expression NM_007987 average,[3],0.03487
same,Gene expression NM_008522 average,[3],0.0486
same,Gene expression NM_008935 average,[3],0.4082
same,Gene expression NM_009897 average,[3],0.111
same,Gene expression NM_011075 average,[3],0.1618
same,Gene expression NM_011176 average,[3],0.1358
same,Gene expression NM_011316 average,[3],0.06377
same,Gene expression NM_012006 average,[3],0.5806
same,Gene expression NM_013642 average,[3],0.2659
same,Gene expression NM_013738 average,[3],−0.305
same,Gene expression NM_013929 average,[3],0.033
same,Gene expression NM_018881 average,[3],−0.1679
same,Gene expression NM_019738 average,[3],−0.9543
same,Gene expression NM_030697 average,[3],−0.0261
same,Gene expression NM_053122 average,[3],−0.142
same,Gene expression NM_134147 average,[3],−0.1757
same,Gene expression NM_134188 average,[3],−0.07067
same,Gene expression X62701 average,[3],0.154
same,Gene expression data AF000969 (Cadps2),[3],−0.3717
same,Gene expression data AF022072 (Grb10),[3],−0.4275
same,Gene expression data AF065917 (Lif),[3],−0.2101
same,Gene expression data AF297615 (Ggta1),[3],−0.0684
same,Gene expression data AI594683 (Dmn),[3],−0.09783
same,Gene expression data AI596632 (Ptprg /// LOC632664),[3],−0.227
same,Gene expression data AI987929 (Ndrg1),[3],0.4414
same,Gene expression data AK004419 (Fbxl17),[3],0.01113
same,Gene expression data AK005731 (1700007K13Rik),[3],0.1143
same,Gene expression data AK007766 (1810044A24Rik),[3],−0.0226
same,Gene expression data AK007854 (1810053B23Rik),[3],−0.076
same,Gene expression data AK009736 (Gpr137b /// LOC664862 /// LOC673335),[3],0.5337
same,Gene expression data AK010447 (Smyd3),[3],0.07697
same,Gene expression data AK014608 (4632434l11Rik),[3],−0.1225
same,Gene expression data AK019979 (2610528E23Rik),[3],0.08447
same,Gene expression data AV095209 (Mthfd1l),[3],0.1564
same,Gene expression data AV141095 (1110033M05Rik),[3],−0.07047
same,Gene expression data AV173571 (1700106N22Rik),[3],0.04197
same,Gene expression data AV219418 (Ldhb),[3],0.0363
same,Gene expression data AV223474 (Zdhhc14),[3],−0.06957
same,Gene expression data AV298304 (Homez),[3],−0.03607
same,Gene expression data AV327248 (Zfp365 /// LOC674611),[3],−0.082
same,Gene expression data AV377066 (9130221J18Rik),[3],−0.3212
same,Gene expression data AW240761 (Tbc1d5),[3],−0.2006
same,Gene expression data AW543460 (Pard3),[3],−0.0366
same,Gene expression data AW543723,[3],−0.0994
same,Gene expression data AW986246 (Maoa),[3],0.3198
same,Gene expression data BB027848 (4732466D17Rik),[3],−0.2807
same,Gene expression data BB043558 (9230114K14Rik),[3],−0.3734
same,Gene expression data BB275142 (AW456874),[3],−0.02507
same,Gene expression data BB308836 (Ppm1l),[3],0.2558
same,Gene expression data BB318221 (Zdhhc14),[3],0.1138
same,Gene expression data BB463610 (4632434l11Rik),[3],−0.2188
same,Gene expression data BB526605 (Mipol1),[3],−0.01453
same,Gene expression data BB770528 (Rai2),[3],0.1386
same,Gene expression data BB821363 (Scfd2),[3],0.1765
same,Gene expression data BC004827 (Psat1),[3],−0.1011
same,Gene expression data BC008626 (Icam1),[3],−0.4422
same,Gene expression data BC010462 (BC010462),[3],0.05663
same,Gene expression data BC012247 (Dcxr),[3],−0.0122
same,Gene expression data BC012260 (Psmf1),[3],0.2545
same,Gene expression data BC015270 (Hist2h3c2),[3],−0.03353
same,Gene expression data BC016073 (Cdkal1),[3],−0.05183
same,Gene expression data BC016265 (Ube2e2),[3],−0.2547
same,Gene expression data BC019882 (Acaa1b),[3],0.0605
same,Gene expression data BC025501 (Aaas),[3],0.1979
same,Gene expression data BC025837 (Sbk1),[3],−0.04227
same,Gene expression data BC025915 (Cova1),[3],−0.02643
same,Gene expression data BC026422 (Tgm1),[3],0.2873
same,Gene expression data BF719766 (Thyn1),[3],−0.1935
same,Gene expression data BG065754 (Ccng1),[3],−0.2279
same,Gene expression data BG066903 (Kif16b),[3],−0.1277
same,Gene expression data BG069873 (Gnb1l),[3],−0.04763
same,Gene expression data BG070887 (Gtdc1),[3],−0.04273
same,Gene expression data BG076151 (Ppm1d),[3],0.07243
same,Gene expression data BG261907 (Large),[3],−0.1486
same,Gene expression data BI651416 (Cdc42bpg),[3],0.1364
same,Gene expression data BI660702 (Ell3),[3],0.05113
same,Gene expression data BM198879 (Ercc5),[3],−0.006767
same,Gene expression data BM230508 (A030007D23Rik),[3],0.03497
same,Gene expression data NM_007987 (Fas),[3],−0.05523
same,Gene expression data NM_008522 (Ltf),[3],−0.05963
same,Gene expression data NM_008576 (Abcc1),[3],0.106
same,Gene expression data NM_011176 (St14),[3],0.05783
same,Gene expression data NM_011316 (Saa4),[3],0.0831
same,Gene expression data NM_012006 (Acot1),[3],−0.2532
same,Gene expression data NM_013866 (Zfp385),[3],0.05893
same,Gene expression data NM_018770 (Igsf4a),[3],0.1391
same,Gene expression data NM_021451 (Pmaip1),[3],−0.5295
same,Gene expression data NM_025770 (Atg10),[3],−0.1372
same,Gene expression data NM_028803 (Gbe1),[3],−0.04593
same,Gene expression data NM_030697 (Ankrd47),[3],0.2204
same,Gene expression data NM_053168 (Trim11),[3],−0.0493
same,Gene expression data NM_134188 (Acot2),[3],−0.2881
same,Gene expression data Y15910 (Diap2),[3],−0.2692
